The text below walks through data of patent publication US20210123066A1, “METHODS OF REGENERATION AND TRANSFORMATION OF STEVIA PLANT AND TRANSGENIC STEVIA PLANTS HAVING ENHANCED STEVIOL GLYCOSIDES CONTENT” (TEMASEK LIFE SCIENCES LABORATORY LIMITED, priority 2018, published 2021).

The subject of the experiment is SrUGT76G1. The experiment in a line: In vitro UDP-glucosyltransferase activity assay with GST-SrUGT76G1. The settings on record: for product formed by GST-UGT76G1 from the acceptor (HPLC): 5 mM UDP-glucose, 16 h; for product formed by GST-SrUGT76G1 from the acceptor (TLC): 50 μM substrate, UDP-glucose donor, 30° C., 2 h. The experiment is classed as biochemical, Stevia rebaudiana. As to the method:
Expression of recombinant UGT76G1 and UDP-glucosyltransferase activity assay: The full-length cDNA of SrUGT76G1 was cloned into pDEST15 to obtain GST-tag fused protein. The resulting expression vector was transformed into E. Coli BL21 (DE3)-derived Rosetta strain (Novagen) and grown under appropriate antibiotics. GST-tagged SrUGT76G1 recombinant protein was purified by glutathione agarose beads (ThermoFisher Scientific). About 1 μg of recombinant protein was used for enzyme assay with 50 μM of the substrate (dulcoside A or Reb A) in an assay buffer (50 mM HEPES, pH 7.5, 3 mM MgCl2, 10 μg/ml Bovine Serum Albumin). To initiate the reaction, a 1 mM UDP-glucose mixture (997.5 μM UDP-glucose and […] UDP-[^14C]-glucose, 2.78 kBq, Amersham Biosciences) was added. In vitro glucosyltransferase activity assays were performed as described by Richman et al. (2005). The assay was carried out at 30° C. for 2 h and extracted twice with 100 μl of water-saturated 1-butanol. Pooled fractions were dried in a vacuum centrifuge and resuspended in 10 μl water-saturated 1-butanol for thin layer chromatography (TLC) analysis. The TLC was performed with 10 μl of reaction products using chloroform:methanol:water (15:10:2 v/v/v) as the mobile phase on a silica gel-coated TLC plate (Fluka) in a mobile phase saturated glass chamber. SGs standards were run under the same condition. After air-drying, the image on the TLC plate was captured on a storage phosphor screen in a phosphorimager cassette (Bio-Rad) for 2-3 d and visualized on a Typhoon 9200 imager (Amersham Biosciences).
HPLC analysis of in vitro glucosyltransferase activity assay mixture: In vitro glucosyltransferase activity assay was performed as indicated in the TLC analysis, but 5 mM of UDP-glucose was used without UDP-[^14C]-glucose and the incubation time was increased to 16 h. Samples were extracted 3 times with water-saturated 1-butanol and dried completely in a vacuum centrifuge. Dried samples were dissolved in MeOH for UHPLC analysis in accordance with the method mentioned for SGs content analysis.

In the case of `C=C1C[C@@]23CC[C@H]4[C@@](C)(CCC[C@@]4(C)C(=O)O[C@@H]4O[C@H](CO)[C@@H](O)[C@H](O)[C@H]4O)[C@@H]2CC[C@]1(O[C@@H]1O[C@H](CO)[C@@H](O)[C@H](O[C@@H]2O[C@H](CO)[C@@H](O)[C@H](O)[C@H]2O)[C@H]1O[C@@H]1O[C@H](CO)[C@@H](O)[C@H](O)[C@H]1O)C3` [Reb A, rebaudioside A], the “product formed by GST-UGT76G1 from the acceptor (HPLC)” value (“product formed by GST-UGT76G1” for short) is listed as “Reb I”.

As for `C=C1C[C@@]23CC[C@H]4[C@@](C)(CCC[C@@]4(C)C(=O)O[C@@H]4O[C@H](CO)[C@@H](O)[C@H](O)[C@H]4O)[C@@H]2CC[C@]1(O[C@@H]1O[C@H](CO)[C@@H](O)[C@H](O)[C@H]1O[C@@H]1O[C@@H](C)[C@H](O)[C@@H](O)[C@H]1O)C3` [dulcoside A], the “product formed by GST-SrUGT76G1 from the acceptor (TLC)” value is “Reb C” and the “product formed by GST-UGT76G1” value was “Reb C”.

As for `C=C1C[C@@]23CC[C@H]4[C@@](C)(CCC[C@@]4(C)C(=O)O[C@@H]4O[C@H](CO)[C@@H](O)[C@H](O)[C@H]4O)[C@@H]2CC[C@]1(O[C@@H]1O[C@H](CO)[C@@H](O)[C@H](O)[C@H]1O[C@@H]1O[C@H](CO)[C@@H](O)[C@H](O)[C@H]1O)C3` [stevioside], the “product formed by GST-SrUGT76G1 from the acceptor (TLC)” value is given as “Reb A” and the “product formed by GST-UGT76G1” value is on record as “Reb A”.
